Patent EP1161524B1, “CELLS COEXPRESSING AN AMYLOID PRECURSOR PROTEIN AND AN $g(a)-SECRETASE AND THEIR USES IN TEST METHODS AND DIAGNOSTICS” (Fahrenholz, Falk, priority 1999, dated 2000)

Assays:
[1] = target: T1, gereinigtes ADAM 10 (Bos taurus, UniProt Q10741); test: Inhibition of the proteolytic cleavage of Aβ(11-28) by purified ADAM 10 (metalloproteinase inhibitors); assay type: biochemical, Rind (Bos taurus); details: inhibitor concentration 1 mM
T1 construct: daß die proteolytisch aktivierte Form der Disintegrin-Metalloprotease ADAM 10 im wesentlichen in der Plasmamembranen lokalisiert ist; from tissue; host or cells: bovine kidney plasma membranes
T1 sequence (Q10741 214-748): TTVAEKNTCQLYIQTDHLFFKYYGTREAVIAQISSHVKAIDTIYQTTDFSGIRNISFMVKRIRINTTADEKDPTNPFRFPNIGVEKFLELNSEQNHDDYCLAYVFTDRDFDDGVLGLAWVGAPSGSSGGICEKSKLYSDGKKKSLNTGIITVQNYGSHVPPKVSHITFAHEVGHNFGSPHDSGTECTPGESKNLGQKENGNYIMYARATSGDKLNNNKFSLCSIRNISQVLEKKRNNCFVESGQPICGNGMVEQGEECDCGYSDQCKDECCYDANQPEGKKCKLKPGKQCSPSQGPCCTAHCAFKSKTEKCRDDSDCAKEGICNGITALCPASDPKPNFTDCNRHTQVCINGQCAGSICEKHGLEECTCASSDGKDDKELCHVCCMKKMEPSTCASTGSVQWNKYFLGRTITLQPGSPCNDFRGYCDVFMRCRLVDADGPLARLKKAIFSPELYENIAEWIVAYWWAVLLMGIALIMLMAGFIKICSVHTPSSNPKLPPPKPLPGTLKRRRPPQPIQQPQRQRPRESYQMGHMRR
Experimental: Peptide einer Endkonzentration von 0,3 mM wurden mit 2 µg gereinigten Enzym in 50 µl 50 mM EPPS pH 8,3, 250 mM NaCl bei 37°C 30 Minuten oder 6 Stunden inkubiert. Die Reaktionen wurden mit 2 µl TFA gestoppt. Meßproben wurden mit Hilfe von HPLC auf einer Vydac (The Separation Group, Hesperia, Calif. USA) RP 18 Säule (5 µm, 250 x 4,6 mm) analysiert. Die Peptide wurden mit einem Puffersystem von 0,1 % TFA in Wasser (Puffer A) und 0,1 % TFA, 9,9 % Wasser, 90 % Acetonitril (Puffer B) aufgetrennt, wobei der folgende Gradient angelegt wurde: 0 % B, 5 Min.; 0 bis 70 % B innerhalb 45 Min. Das Molekulargewicht der Proteolyseprodukte wurde mit ESI-Massenspektrometrie bestimmt. Für die Berechnung der prozentualen Spaltung wurde die Peakfläche, die ein Peptid ergab, das ohne Enzym inkubiert und ansonsten identisch behandelt wurde, als Referenz für 100 % herangezogen.
Einige Metalloproteinase-Inhibitoren wurden auf ihre Fähigkeit, die proteolytische Spaltung von Aβ(11-28) durch gereinigtes ADAM 10 zu inhibieren, getestet.

[2] = test system: HEK-Zellen; test: Immunoblot analysis of APPsα secretion into the medium (antibody 6E10), untransfected HEK cells; assay type: cell-based; details: Homo sapiens, HEK293, 1 µm PMA, 4 h, Fig. 5 lanes 1 and 2, read-out: Erhöhung der APPsα-Freisetzung
Source text: (§1) Fig. 5 zeigt die Sekretion von APPsα von HEK- und HEK-ADAM-10-Zellen. • (A) Die Zellen wurden in Gegenwart der bezeichneten Verbindung inkubiert. Nach 4 Stunden wurde das Medium gesammelt, die Proteine präzipitiert und einer Immunoblotanalyse mit dem monoklonalen Antikörper 6E10, gefolgt von einem sekundären [^35S]-markierten Anti-Maus-IgG-Antikörper, unterzogen. • (B) Quantitative Analyse des sekretierten APPsα. Die APPsα entsprechenden radioaktiven Banden wurden mit Hilfe eines Bio-Imaging Analyzer BAS-1800 quantifiziert. Die Meßwerte wurden wie in dem Beispiel beschrieben, auf verschiedene Proteinmengen normiert. […]
(§2) 8.10^5 HEK und HEK-ADAM10-Zellen (HEK-Zellen, die ADAM 10 stabil exprimieren, Verfahren wie oben) wurden auf 5 cm Zellkulturschalen, die mit Poly-L-Lysin behandelt worden waren, ausgesät und fast bis zu Konfluenz hochgezogen. […] Die radioaktiven Banden, die APPsα entsprachen, wurden mit Hilfe des Bio-Imaging-Analysers-BAS-1800 (Fuji) quantifiziert. […]
(§3) Die α-Sekretaseaktivität in HEK-ADAM 10 Zellen wurde mit der Aktivität, die in untransfizierten HEK-Zellen gefunden wurde, verglichen. […] Immunoblotexperimente und Immunopräzipitation nach metabolischer [^35S]-Markierung wurden durchgeführt, um die α-Sekretaseaktivität zu quantifizieren (Fig. 5 und Fig. 6). […]

[3] = test system: HEK-ADAM 10-Zellen; test: Immunoblot analysis of APPsα secretion into the medium (antibody 6E10), HEK cells stably expressing ADAM 10; assay type: cell-based; details: Homo sapiens, HEK293; HEK-ADAM 10 cells, 1 µm PMA, 4 h, Fig. 5 lanes 4 and 5; read-out: Vergrößerung der α-Sekretaseaktivität (APPsα-Freisetzung)
Source text: as §1, §2, §3

Row | Inhibierung der proteolytischen Spaltung von Aβ(11-28) durch gereinigtes ADAM 10 [1] | Structure (SMILES) | fold induction at 1 µM [2] | fold induction at 1 µM [3]
1 | inhibierte | c1cnc2c(c1)ccc1cccnc12 [1,10-Phenanthrolin] |  | 
2 | vollständig inhibiert | OC(CS)C(O)CS (stereo not shown) [DTT] |  | 
3 |  | CCCCCCCCCCCCCC(=O)O[C@@H]1[C@@H](C)[C@@]2(O)[C@@H](C=C(CO)C[C@]3(O)C(=O)C(C)=C[C@@H]23)[C@@H]2C(C)(C)[C@]12OC(C)=O [PMA, Phorbol-12-myristat-13-acetat] | ~6 | 2.5
